The source made the active and inactive calls. The calls are words filed in the database; no cut-off is given here.
How the values were obtained:
[1] = Inhibition of microtubule assembly at 100 uM
[2] = Inhibition of microtubule assembly
[3] = system: MCF7; assay: Cytotoxicity against human MCF7 cells; assay type: functional
[4] = system: MCF7; assay: Ratio of ED50 for drug to ED50 for epothilone B against human MCF7 cells; assay type: functional

Activity [1]: inactive | EC50 [2]: 2.5 µM
Structure (SMILES): C/C(=C\c1csc(C)n1)[C@@H]1C/C=C\CCC[C@H](COCc2ccccc2)C(O)[C@@H](C)C(=O)C(C)(C)C(O)CC(=O)O1 (some centres undefined)
Activity [3]: 2.1 µM | Ratio ED50 [4]: 1050
